# From patent US20120156230A1, “TREATMENT OF SPINAL CORD INJURY AND TRAUMATIC BRAIN INJURY USING PLACENTAL STEM CELLS” (priority 2010, published 2012)
# What was measured:
# T cells (Th1 skewing) = test: Th1 skewing culture; format: cell-based; details: BTR with IL-2, IL-12, anti-IL-4 cocktail
# Method: To investigate the molecular mechanism of action of PDAC-mediated suppression of Th1 skewing, IDO siRNA was transiently transfected into PDACs by standard techniques. Th1 skewing was carried out as for the BTR reactions (see above) but supplemented with an additional Th1 skewing cytokine cocktail containing IL-2 (200 IU/mL), IL-12 (2 ng/mL) and anti-IL-4 (0.4 μg/ml).
# [1] = target: T1, indoleamine 2,3-dioxygenase (IDO) (Homo sapiens, UniProt P14902); test: BTR T cell proliferation assay with IDO blockade; format: cell-based; details: 256 μM
# T1 construct: endogenous in cells; host or cells: PDACs (placental stem cells) co-cultured with T cells in the BTR assay
# T1 sequence (P14902 whole entry): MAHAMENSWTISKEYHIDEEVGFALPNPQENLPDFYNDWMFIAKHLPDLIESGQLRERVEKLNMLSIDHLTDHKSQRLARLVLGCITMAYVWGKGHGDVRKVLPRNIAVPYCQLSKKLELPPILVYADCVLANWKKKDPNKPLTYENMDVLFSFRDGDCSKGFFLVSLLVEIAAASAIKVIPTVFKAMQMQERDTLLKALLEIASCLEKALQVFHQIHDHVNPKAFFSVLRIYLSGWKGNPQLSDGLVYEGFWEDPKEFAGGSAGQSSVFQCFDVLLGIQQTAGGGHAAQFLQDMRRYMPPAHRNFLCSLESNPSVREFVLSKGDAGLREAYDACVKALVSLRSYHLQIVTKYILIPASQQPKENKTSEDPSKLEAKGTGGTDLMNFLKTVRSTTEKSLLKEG
# Source text: To investigate the mechanism of action of PDAC-mediated suppression of T cell proliferation, pharmacological inhibitors or neutralizing antibodies were used to block the activity of prostaglandin E2 (PGE2), inducible nitric oxide synthase (iNOS), transforming growth factor beta (TGF-β), interleukin-10 (IL-10) and IDO in an in vitro T cell proliferation assay (BTR).
# [2] = test system: chick chorioallantoic membrane (CAM); test: CAM angiogenesis assay using PDACs; format: in vivo; details: P<0.001, Student's t test
# Method: Two separate CAM assays were conducted. In the first CAM assay, intact cell pellets from different preparations of PDAC were evaluated. In the second CAM assay, supernatants of different PDAC preparations were evaluated. Fibroblast growth factor (bFGF) was used as a positive control, and MDA-MB-231 human breast cancer cells as a reference, vehicle and medium controls were used as negative controls. The endpoint of the study was to determine the blood vessel densities of all treatment and control groups.
# PDACs, prepared as described above and cryopreserved, were used. PDACs were thawed for dosing and the number of cells dosed on the CAM was determined. […]
# CAM Assay Procedure: Fresh fertile eggs were incubated for 3 days in a standard egg incubator at 37° C. for 3 days. […] On Day 8, embryos were removed from the incubator and kept at room temperature while blood vessel density was determined under each “O” ring using an image capturing system at a magnification of 100×.
# Blood vessel density was measured by an angiogenesis scoring system that used arithmetic numbers 0 to 5, or exponential numbers 1 to 32, to indicate the number of blood vessels present at the treatment sites on the CAM. […] The percent of inhibition at each dosing site was calculated using the score recorded for that site divided by the mean score obtained from control samples for each individual experiment. […]
# [3] = test system: chick chorioallantoic membrane (CAM); test: CAM angiogenesis assay using PDAC supernatants; format: in vivo; details: supernatant mixed with MATRIGEL 1:1; PDAC supernatants P<0.01, P<0.001, P<0.02; bFGF P<0.001
# Source text: Supernatant samples from MDA-MB-231 cells and PDACs were used in a second CAM assay as described above. bFGF and MDA-MB-231 supernatants were used as positive controls, medium and vehicle were used as negative controls.
# Study Design: The study included 5 groups with 10 embryos in each group. The design of the study is described in Table 4.
# CAM Assay Procedure: The assay procedure was the same as described in section 6.3.1, above. The only difference was that supernatant from each stem cell preparation or from MDA-MB-231 cells was used as test material. For dosing, each supernatant was mixed with MATRIGEL™ (1:1 by volume) and […] of the mixture was dosed to each embryo.
Compound,rescue of PDAC-mediated suppression of Th1 skewing (T cells (Th1 skewing)),rescue of T cell proliferation from PDAC-mediated suppression [1],blood vessel density score versus vehicle control CAMs [2],blood vessel induction versus vehicle controls [3]
"Cn1cc(C[C@H](N)C(=O)O)c2ccccc21 [1 MT, 1-methyl tryptophan]",completely rescued,–,–,–
"N[C@@H](Cc1c[nH]c2ccccc12)C(=O)O [L-Trp, L-trptophan]",completely rescued,substantially rescued,–,–
bFGF: basic fibroblast growth factor (positive control),–,–,statistically significantly higher,potent induction of blood vessel formation
